This is an account of results in ChEMBL document CHEMBL5131523, “Long-Awaited Small-Molecule Drug Candidate for Drugging the Next Undruggable KRASG12D Mutant in Cancer Therapy” (ACS Med Chem Lett, 2022).

This assay deals with BaF3. The assay is described as follows: Antiproliferative activity against mouse BaF3 cells harboring KRAS G12D mutant assessed as inhibition of cell proliferation incubated for 3 days by CellTiter-Glo assay. It counts as toxicity, cell-based. Particulars: BaF3, 72 h.

For orientation: IC50 means the concentration needed to halve the response being measured. As for `C#Cc1c(F)ccc2cc(O)cc(-c3nc(OC(C)C)c4c(N5C[C@H]6CC[C@@H](C5)N6)nc(C(F)F)nc4c3F)c12`, the half-inhibitory concentration (IC50) was at most 500 nM.

For `C#Cc1c(F)ccc2cc(O)cc(-c3nc(OCC(F)F)c4c(N5C[C@H]6CC[C@@H](C5)N6)nc(OC[C@@]56CCCN5C[C@H](F)C6)nc4c3F)c12`, the IC50 was at most 500 nM.

Regarding `Oc1cc(-c2nc(O)c3c(N4C[C@H]5CC[C@@H](C4)N5)nc(OC[C@@]45CCCN4C[C@H](F)C5)nc3c2F)c2c(Cl)c(F)ccc2c1`, the half-inhibitory concentration (IC50) worked out at 500 nM.

Consider `Fc1c(-c2cccc3cccc(Cl)c23)ncc2c(N3C[C@H]4CC[C@@H](C3)N4)nc(OCC34CCCN3CCC4)nc12`, for which the half-inhibitory concentration (IC50) is at most 500 nM.

Take `Cc1cccc2cc(O)cc(-c3nc(C)c4c(N5C[C@H]6CC[C@@H](C5)N6)nc(OC[C@@]56CCCN5C[C@H](F)C6)nc4c3F)c12`: the half-maximal inhibitory concentration (IC50) was at most 500 nM.

For `CCOc1nc(-c2cc(O)cc3ccc(F)c(Cl)c23)c(F)c2nc(OC[C@@]34CCCN3C[C@H](F)C4)nc(N3C[C@H]4CC[C@@H](C3)N4)c12`, the IC50 was at most 500 nM.

With `C#Cc1c(F)ccc2cc(O)cc(-c3nc(OC(F)F)c4c(N5C[C@H]6CC[C@@H](C5)N6)nc(OC[C@@]56CCCN5C[C@H](F)C6)nc4c3F)c12`, the IC50 is at most 500 nM.

As for `Cc1nc(-c2cc(O)cc3cccc(Cl)c23)c(F)c2nc(OC[C@@]34CCCN3C[C@H](F)C4)nc(N3C[C@H]4CC[C@@H](C3)N4)c12`, the IC50 was at most 500 nM.

On to `Oc1cc(-c2nc(Cl)c3c(N4C[C@H]5CC[C@@H](C4)N5)nc(OC[C@@]45CCCN4C[C@H](F)C5)nc3c2F)c2ccccc2c1`, for which the IC50 was at most 500 nM.

On to `C#Cc1c(F)ccc2cc(O)cc(-c3nc(OC(C)C)c4c(N5C[C@H]6CC[C@@H](C5)N6)nc(OC[C@@]56CCCN5C[C@H](F)C6)nc4c3F)c12`, for which the IC50 is at most 500 nM.

On to `C#Cc1c(F)ccc2cc(O)cc(-c3nc(OCC)c4c(N5CCNC6(CCC6)C5)nc(OC[C@@]56CCCN5C[C@H](F)C6)nc4c3F)c12`, for which the IC50 is at most 500 nM.

Take `C#Cc1c(F)ccc2cc(O)cc(-c3nc(OC(C)C)c4c(N5C[C@H]6CC[C@@H](C5)N6)nc(NC)nc4c3F)c12`: the 50% inhibitory concentration (IC50) was 500 nM.
